Measured values published in US8455522B2, “Benzoxazolone derivatives as aldosterone synthase inhibitors” (Novartis AG, priority 2009, dated 2013).
Values belong to the compound of their own block, whether it stands above or below them.

Legend:
aldosterone synthase = target: T1, aldosterone synthase (Homo sapiens, UniProt P19099); assay: Aldosterone cell secretion in NCI-H295R cells (aldosterone synthase inhibition, SPA); format: cell-based; details: human adrenocortical carcinoma NCI-H295R cells, 1 μM Ang II, 24 hr
T1 construct: host or cells: NCI-H295R
T1 sequence (P19099 25-503): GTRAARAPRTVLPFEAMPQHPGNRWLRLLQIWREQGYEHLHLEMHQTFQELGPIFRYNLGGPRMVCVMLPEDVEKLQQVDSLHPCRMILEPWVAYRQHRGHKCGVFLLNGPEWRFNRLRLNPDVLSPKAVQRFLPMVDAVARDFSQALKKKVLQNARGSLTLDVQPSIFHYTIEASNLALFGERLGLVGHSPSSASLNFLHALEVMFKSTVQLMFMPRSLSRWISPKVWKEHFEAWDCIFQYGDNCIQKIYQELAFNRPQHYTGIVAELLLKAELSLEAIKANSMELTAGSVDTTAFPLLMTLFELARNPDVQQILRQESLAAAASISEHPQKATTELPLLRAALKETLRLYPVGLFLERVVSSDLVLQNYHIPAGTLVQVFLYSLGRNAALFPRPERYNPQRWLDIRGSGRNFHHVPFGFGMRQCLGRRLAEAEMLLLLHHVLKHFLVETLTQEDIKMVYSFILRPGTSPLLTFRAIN
Description: In particular, the aldosterone synthase inhibitory activities in vitro can be determined by the following assay.
Human adrenocortical carcinoma NCI-H295R cell line was obtained from American Type Culture Collection (Manassas, Va.). Insulin/transferrin/selenium (ITS)-A supplement (100×). DMEM/F-12, antibiotic/antimycotic (100×), and fetal bovine serum (FBS) were purchased from Invitrogen (Carlsbad, Calif.). Anti-mouse PVT scintillation proximity assay (SPA) beads and NBS 96-well plates were obtained from GE Health Sciences (Piscataway, N.J.) and Corning (Acton, Mass.), respectively. Solid black 96-well flat bottom plates were purchased from Costar (Corning, N.Y.). Aldosterone and angiotensin (Ang II) were purchased from Sigma (St. Louis, Mo.). D-[1,2,6,7-^3H(N)]aldosterone was acquired from PerkinElmer (Boston, Mass.). Nu-serum was a product of BD Biosciences (Franklin Lakes, N.J.). The NADPH regenerating system, dibenzylfluorescein (DBF), and human aromatase Supersomes® were obtained from Gentest (Woburn, Mass.).
For in vitro measurement of aldosterone activity, human adrenocortical carcinoma NCI-H295R cells are seeded in NBS 96-well plates at a density of 25,000 cells/well in 100 μl of a growth medium containing DMEM/F12 supplemented with 10% FCS, 2.5% Nu-serum, 1 μg ITS/ml, and 1× antibiotic/antimycotic. The medium is changed after culturing for 3 days at 37° C. under an atmosphere of 5% CO2/95% air. On the following day, cells are rinsed with 100 μl of phosphate-buffered saline (PBS) and incubated with 100 μl of treatment medium containing 1 μM Ang II and a compound at different concentrations in quadruplicate wells at 37° C. for 24 hr. At the end of incubation, 50 μl of medium is withdrawn from each well for measurement of aldosterone production by an SPA using mouse anti-aldosterone monoclonal antibodies.
Measurement of aldosterone activity can also be performed using a 96-well plate format. Each test sample is incubated with 0.02 μCi of D-[1,2,6,7-^3H(N)]aldosterone and 0.3 μg of anti-aldosterone antibody in PBS containing 0.1% Triton X-100, 0.1% bovine serum albumin, and 12% glycerol in a total volume of 200 μl at room temperature for 1 hr. Anti-mouse PVT SPA beads (50 μl) are then added to each well and incubated overnight at room temperature prior to counting in a Microbeta plate counter. The amount of aldosterone in each sample is calculated by comparing with a standard curve generated using known quantities of the hormone.
(§1) Inhibition of the release of certain steroids can be used as a measure of the respective enzyme inhibition by the added test compounds. The dose-dependent inhibition of enzymic activity by a compound is calculated by means of an inhibition plot which is characterized by an IC50.
The IC50 values for active test compounds are ascertained by a simple linear regression analysis in order to construct inhibition plots without data weighting. The inhibition plot is calculated by fitting a 4-parameter logistic function to the raw data points using the least squares method. The equation of the 4-parameter logistic function is calculated as follows: Y=(d−a)/((1+(x/c)b))+a, where: a=minimum data level, b=gradient, I […], d=maximum data level, x=inhibitor concentration.
The inhibition activity of aldosterone production can also be expressed in percentage inhibition (% inhibition) at a given concentration (e.g. % inhibition at 1 μM), which is the aldosterone level when the cell is treated with the given concentration of a compound of this invention (e.g. concentration of 1 μM) versus the aldosterone excretion when cell is free of the compound of the invention: % inhibition aldosterone production=[(Y−X)/Y]×100 wherein X is the level of aldosterone when the cell is treated with a compound of Formula I; and Y is the level of aldosterone when the cell is free of compound of Formula I.

CYP11B1 = target: T2, CYP11B1 (Homo sapiens, UniProt P15538); assay: Cortisol cell secretion in NCI-H295R cells (CYP11B1 activity); format: cell-based; details: compound at 1 μM; for inhibition at 1 µM: NCI-H295R, read-out: Cortisol cell secretion (% Inhib. @ 1 μM)
T2 construct: the NCI-H295R cells have Cyp11 B1 (steroid 11 β-hydroxylase); host or cells: NCI-H295R
T2 sequence (P15538 25-503): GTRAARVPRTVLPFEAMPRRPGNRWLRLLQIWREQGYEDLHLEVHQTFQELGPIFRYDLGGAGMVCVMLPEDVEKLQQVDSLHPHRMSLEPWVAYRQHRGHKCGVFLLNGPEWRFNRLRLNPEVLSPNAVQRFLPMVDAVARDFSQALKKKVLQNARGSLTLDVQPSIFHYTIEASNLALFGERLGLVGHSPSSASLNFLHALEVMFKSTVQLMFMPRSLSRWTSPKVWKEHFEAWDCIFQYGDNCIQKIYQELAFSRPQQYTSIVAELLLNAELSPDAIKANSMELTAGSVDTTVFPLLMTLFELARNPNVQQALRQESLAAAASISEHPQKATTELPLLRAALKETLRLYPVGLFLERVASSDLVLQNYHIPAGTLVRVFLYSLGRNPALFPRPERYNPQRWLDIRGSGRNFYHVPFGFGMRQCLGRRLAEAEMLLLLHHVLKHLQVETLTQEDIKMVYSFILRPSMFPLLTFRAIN
Description: The in vitro inhibitory activities for CYP1B1 can be determined by the following assay.
The cell line NCI-H295R was originally isolated from an adrenocortical carcinoma and has been characterized in the literature through the stimulable secretion of steroid hormones and the presence of the enzymes essential for steroidogenesis. Thus, the NCI-H295R cells have Cyp11 B1 (steroid 11 β-hydroxylase). The cells show the physiological property of zonally undifferentiated human foetal adrenocortical cells which, however, have the capacity to produce the steroid hormones which are formed in the three, phenotypically distinguishable zones in the adult adrenal cortex.
The NCI-H295R cells (American Type Culture Collection, ATCC, Rockville, Md., USA) are grown in Dulbeoco's Modified Eagle'Ham F-12 Medium (DME/F12), which has been supplemented with Ulroser SF Serum (Soprachem, Geigy-Saint-Christophe, France), insulin, transferrin, selenite (I-T-S, Becton Dickinson Biosiences, Franklin lakes. NJ, USA) and antibiotics in 75 cm^2 cell culture vessels at 37° C. and in a 95% air-5% carbon dioxide atmosphere. The cells are subsequently transferred for colony formation into a 24-well incubation vessel. They are cultivated there in DME/F12 medium, which is now supplemented with 0.1% bovine serum instead of Ultroser SF for 24 hours. The experiment is initiated by cultivating the cells in DME/F12 medium which is supplemented with 0.1% bovine serum albumin and test compound, in the presence or absence of cell stimulants, for 72 hours. The test substance is added in a concentration range from 0.2 nanomolar to […]. Cell stimulants which can be used are angiotensin II (1 D or 100 nanomolar), potassium ions (16 millimolar), forskolin (10 micromolar) or a combination of two stimulants.
The excretion of aldosterone, cortisol, corticosterone and estradiol/estrone into the culture medium can be detected and quantified by commercially available, specific monoclonal antibodies in radioimmunoassays in accordance with the manufacturer's instructions.
as §1
The inhibition activity of cortisol production (CYP11B1 activity) can also be expressed in percentage inhibition (% inhibition) at a given concentration (e.g. % inhibition at 1 μM), which is the cortisol level when cell is treated with the given concentration of a compound of the invention (e.g. concentration of 1 μM) versus the cortisol excretion when cell is free of the compound of the invention. % inhibition cortisol production=[(Y′−X′)/Y′]×100 wherein X′ is the level of cortisol when the cell is treated with a compound of Formula I; and Y′ is the level of cortisol when the cell is free of compound of Formula I.

SMILES: CC(O)c1ccncc1-c1ccc2oc(=O)n(C)c2c1 (single isomer, unassigned) [Example 7 Enantiomer 1, 5-(4-(1-hydroxyethyl)pyridin-3-yl)-3-methylbenzo[d]oxazol-2(3H)-one]
IC50 (aldosterone synthase): 437 nM

SMILES: CC(O)c1ccncc1-c1ccc2oc(=O)n(C)c2c1 (single isomer, unassigned) [Example 7 Enantiomer 2, 5-(4-(1-hydroxyethyl)pyridin-3-yl)-3-methylbenzo[d]oxazol-2(3H)-one]
IC50 (aldosterone synthase): 452 nM

SMILES: Cn1c(=O)oc2ccc(-c3cnccc3C(O)c3ccc(F)cc3)cc21 (single isomer, unassigned) [Example 8 Enantiomer 1, 5-(4-((4-fluorophenyl)(hydroxy)methyl)pyridin-3-yl)-3-methylbenzo[d]oxazol-2(3H)-one]
inhibition at 1 µM (CYP11B1): 77% | IC50 (aldosterone synthase): 53 nM

SMILES: Cn1c(=O)oc2ccc(-c3cnccc3C(O)c3ccc(F)cc3)cc21 (single isomer, unassigned) [Example 8 Enantiomer 2, 5-(4-((4-fluorophenyl)(hydroxy)methyl)pyridin-3-yl)-3-methylbenzo[d]oxazol-2(3H)-one]
Cortisol cell secretion (% Inhib. @ 1 μM) (CYP11B1; 1 µM): 73% | IC50 (aldosterone synthase): 66 nM

SMILES: Cn1c(=O)oc2ccc(-c3cncc(C(O)C4CC4)c3)cc21 (single isomer, unassigned) [Example 13 Enantiomer 2, 5-(5-(cyclopropyl(hydroxy)methyl)pyridin-3-yl)-3-methylbenzo[d]oxazol-2(3H)-one]
Cortisol cell secretion (% Inhib. @ 1 μM) (CYP11B1): 64% | IC50 (aldosterone synthase): 30 nM

SMILES: Cn1c(=O)oc2ccc(-c3cncc(C(N)C(F)(F)F)c3)cc21 (single isomer, unassigned) [Example 29 Enantiomer 1, 5-(5-(1-amino-2,2,2-trifluoroethyl)pyridin-3-yl)-3-methylbenzo[d]oxazol-2(3H)-one]
inhibition at 1 µM (CYP11B1): 57% | IC50 (aldosterone synthase): 47 nM

SMILES: Cn1c(=O)oc2ccc(-c3cncc(C(N)C(F)(F)F)c3)cc21 (single isomer, unassigned) [Example 29 Enantiomer 2, 5-(5-(1-amino-2,2,2-trifluoroethyl)pyridin-3-yl)-3-methylbenzo[d]oxazol-2(3H)-one]
Cortisol cell secretion (% Inhib. @ 1 μM) (CYP11B1): 57% | IC50 (aldosterone synthase): 34 nM

SMILES: Cn1c(=O)oc2cc(F)c(-c3cncc(CO)c3)cc21 [Example 11]
inhibition at 1 µM (CYP11B1): 39% | IC50 (aldosterone synthase): 128 nM

SMILES: Cn1c(=O)oc2ccc(-c3cncc(CCO)c3)cc21 [Example 18, 5-(5-(2-hydroxyethyl)pyridin-3-yl)-3-methylbenzo[d]oxazol-2(3H)-one]
inhibition at 1 µM (CYP11B1): 57% | IC50 (aldosterone synthase): 34 nM

Compounds with a lower IC50 (aldosterone synthase), results first:

inhibition at 1 µM (CYP11B1): 64% | IC50 (aldosterone synthase): 28 nM
SMILES: Cn1c(=O)oc2ccc(-c3cncc(C(O)C4CC4)c3)cc21 (single isomer, unassigned) [Example 13 Enantiomer 1, 5-(5-(cyclopropyl(hydroxy)methyl)pyridin-3-yl)-3-methylbenzo[d]oxazol-2(3H)-one]

inhibition at 1 µM (CYP11B1): 58% | IC50 (aldosterone synthase): 17.8 nM
SMILES: Cn1c(=O)oc2ccc(-c3cccnc3)cc21 [Example 1, 3-Methyl-5-pyridin-3-yl-3H-benzooxazol-2-one]

inhibition at 1 µM (CYP11B1): 82% | IC50 (aldosterone synthase): 4 nM
SMILES: Cc1ccncc1-c1ccc2oc(=O)n(C)c2c1 [Example 2, 3-Methyl-5-(4-methyl-pyridin-3-yl)-3H-benzooxazol-2-one]

inhibition at 1 µM (CYP11B1): 77% | IC50 (aldosterone synthase): 18 nM
SMILES: COc1cncc(-c2ccc3oc(=O)n(C)c3c2)c1 [Example 4, 5-(5-methoxypyridin-3-yl)-3-methylbenzo[d]oxazol-2(3H)-one]

inhibition at 1 µM (CYP11B1): 96% | IC50 (aldosterone synthase): 17 nM
SMILES: CCN(Cc1ccccc1)Cc1cncc(-c2ccc3oc(=O)n(C)c3c2)c1 [Example 10, 5-{5-[(Benzyl-ethyl-amino)-methyl]-pyridin-3-yl}-3-methyl-3H-benzooxazol-2-one]

inhibition at 1 µM (CYP11B1): 89% | IC50 (aldosterone synthase): 3 nM
SMILES: Cn1c(=O)oc2ccc(-c3cncc(C(C)(C)O)c3)cc21 [Example 14, 5-(5-(2-hydroxypropan-2-yl)pyridin-3-yl)-3-methylbenzo[d]oxazol-2(3H)-one]

inhibition at 1 µM (CYP11B1): 83% | IC50 (aldosterone synthase): 21 nM
SMILES: Cn1c(=O)oc2ccc(-c3cncc(CO)c3)cc21 [Example 15, 5-(5-(hydroxymethyl)pyridin-3-yl)-3-methylbenzo[d]oxazol-2(3H)-one]
